# Where two headings read alike, the source gives them in different places. Starred links: 1 amine or outer side, 2 acyl side, 3 side chain; linkers in the order of their positions; H or OH if unused. Non-standard residues stand in square brackets, D forms with d. Groups on a side chain read outwards from the residue. *: point of attachment. C20 diacid = O=C(O)CCCCCCCCCCCCCCCCCCC(=O)*; C18 diacid = O=C(O)CCCCCCCCCCCCCCCCC(=O)*; γGlu = O=C(O)[C@H](CCC(=O)[*:2])N[*:1]; εLys = N[C@@H](CCCCN[*:1])C(=O)[*:2]; NMeR = CN[C@@H](CCCNC(=N)N)C(=O)O; β3hQ = NC(=O)CC[C@H](N)CC(=O)O; AEEA = NCCOCCOCC(=O)O; Aib = CC(C)(N)C(=O)O
# What was measured:
# Type in all cases: cell-based
# Details in all cases: CreLuc reporter gene assay
# hGLP1R = target: T1, hGLP1R (Homo sapiens, UniProt P43220); experiment: hGLP1R CreLuc reporter gene assay in 0.5% and 100% plasma
# T1 construct: expressed in transfected cells; host or cells: HEK-293 cells carrying a CRE-luciferase reporter gene
# T1 sequence (P43220 24-463): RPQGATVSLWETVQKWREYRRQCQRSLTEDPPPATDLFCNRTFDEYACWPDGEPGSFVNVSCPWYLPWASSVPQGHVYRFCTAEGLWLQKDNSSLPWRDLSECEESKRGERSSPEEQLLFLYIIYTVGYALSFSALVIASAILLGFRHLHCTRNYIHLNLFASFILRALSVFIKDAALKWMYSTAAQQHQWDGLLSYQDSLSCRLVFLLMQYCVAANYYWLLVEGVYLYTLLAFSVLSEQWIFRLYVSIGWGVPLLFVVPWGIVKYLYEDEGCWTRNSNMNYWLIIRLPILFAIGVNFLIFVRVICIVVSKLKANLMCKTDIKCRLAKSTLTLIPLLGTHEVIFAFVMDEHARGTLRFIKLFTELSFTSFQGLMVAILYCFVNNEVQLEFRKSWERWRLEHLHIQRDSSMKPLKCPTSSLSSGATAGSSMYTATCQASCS
# Summary of the method: (§1)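 Agonist EC50s came from 8-concentration curves over four decades, fitted by non-linear variable-slope regression of CRE-driven luciferase luminescence. Cells were exposed 4 h at 37 °C, in buffer with 0.5% human plasma or in 100% plasma; GIPR was expressed in CHO cells, GLP-1R and NPY2R in HEK cells.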
# hGIPR = target: T2, hGIPR (Homo sapiens, UniProt P48546); experiment: hGIPR CreLuc reporter gene assay in 0.5% and 100% plasma
# T2 construct: expressed in transfected cells; host or cells: CHO cells carrying a CRE-luciferase reporter gene
# T2 sequence (P48546 22-466): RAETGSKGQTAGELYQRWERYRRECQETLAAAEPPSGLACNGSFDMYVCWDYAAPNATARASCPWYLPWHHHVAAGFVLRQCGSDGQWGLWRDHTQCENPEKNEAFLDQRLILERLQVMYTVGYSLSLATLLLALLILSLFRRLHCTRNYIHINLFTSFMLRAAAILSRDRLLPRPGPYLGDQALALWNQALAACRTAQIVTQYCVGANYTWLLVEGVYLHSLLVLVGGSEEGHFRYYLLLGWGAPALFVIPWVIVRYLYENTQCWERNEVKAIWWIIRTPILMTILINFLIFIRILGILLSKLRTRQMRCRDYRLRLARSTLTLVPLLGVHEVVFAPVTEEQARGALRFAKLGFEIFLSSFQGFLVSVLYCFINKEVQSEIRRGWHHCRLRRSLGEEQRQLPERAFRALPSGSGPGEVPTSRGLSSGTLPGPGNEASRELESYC
# Summary of the method: as §1
# hNPY2R = target: T3, hNPY2R (Homo sapiens, UniProt P49146); experiment: hNPY2R CreLuc reporter gene assay in 0.5% and 100% plasma
# T3 construct: expressed in transfected cells; host or cells: HEK-293 cells carrying a CRE-luciferase reporter gene
# T3 sequence (P49146 1-381): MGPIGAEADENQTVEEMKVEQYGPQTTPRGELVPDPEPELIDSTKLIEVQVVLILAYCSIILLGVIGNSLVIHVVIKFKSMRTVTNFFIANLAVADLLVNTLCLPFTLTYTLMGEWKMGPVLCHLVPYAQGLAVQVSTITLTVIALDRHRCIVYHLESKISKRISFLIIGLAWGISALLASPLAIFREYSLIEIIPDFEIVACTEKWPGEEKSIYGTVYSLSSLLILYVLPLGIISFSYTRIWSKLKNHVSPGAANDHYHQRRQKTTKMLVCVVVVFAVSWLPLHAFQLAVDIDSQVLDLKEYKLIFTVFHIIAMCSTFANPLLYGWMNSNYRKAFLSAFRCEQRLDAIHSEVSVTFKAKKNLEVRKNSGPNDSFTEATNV
# Summary of the method: as §1
# [1] = 0.5% human plasma, read-out: hGLP1R 0.5% hP
# [2] = 0.5% human plasma, read-out: hGIPR 0.5% hP
# [3] = 100% human plasma, read-out: hGIPR 100% hP
# [4] = 100% human plasma, read-out: hNPY2R 100% hP
# [5] = 0.5% human plasma, read-out: hNPY2R 0.5% hP
# [6] = 100% human plasma, read-out: hGLP1R 100% hP
EC50 (hGLP1R; [1]) [nM],EC50 (hGIPR; [2]) [nM],EC50 (hGIPR; [3]) [nM],EC50 (hNPY2R; [4]) [nM],EC50 (hNPY2R; [5]) [nM],EC50 (hGLP1R; [6]) [nM],Substance
0.07,0.12,1.18,27.6,–,–,"H-Y[Aib]EGTFTSDYSI[Aib]LEKQAQ[Aib]AFVQWLIK([εLys-γGlu-γGlu-γGlu-γGlu-γGlu-C18 diacid])GGPSEGASLRHYYNWLTRQRY-NH2 [Compound 267, Y-Aib-E-G-T-F-T-S-D-Y-S-I-Aib-L-E-K-Q-A-Q-Aib-A-F-V-Q-W-L-I-K(1,3)-GGPSEGASLRHYYNWLTRQRY-NH2.C18DA-gGlu-gGlu-gGlu-gGlu-gGlu-eLys(1,2)]"
0.13,0.32,1.72,28.8,–,–,"H-Y[Aib]EGTFTSDYSI[Aib]LEKQAQ[Aib]AFVQWLIK([εLys-γGlu-γGlu-γGlu-γGlu-γGlu-C20 diacid])GGPSEGASLRHYYNWLTRQRY-NH2 [Compound 242, Y-Aib-E-G-T-F-T-S-D-Y-S-I-Aib-L-E-K-Q-A-Q-Aib-A-F-V-Q-W-L-I-K(1,3)-GGPSEGASLRHYYNWLTRQRY-NH2.C20DA-gGlu-gGlu-gGlu-gGlu-gGlu-eLys(1,2)]"
0.21,0.31,–,45.8,8.03,10.2,"H-Y[Aib]EGTFTSDYSI[Aib]LEKQAQ[Aib]AFVQWLIK([εLys-γGlu-γGlu-γGlu-γGlu-γGlu-C20 diacid])GGPSEYASLRHYYNWLTRQRY-NH2 [Compound 189, Y-Aib-E-G-T-F-T-S-D-Y-S-I-Aib-L-E-K-Q-A-Q-Aib-A-F-V-Q-W-L-I-K(1,3)-GGPSEYASLRHYYNWLTRQRY-NH2.C20DA-gGlu-gGlu-gGlu-gGlu-gGlu-eLys(1,2)]"
0.25,1.01,–,–,14.8,–,"H-Y[Aib]EGTFTSDYSI[Aib]LEKQAQ[Aib]AFVQWLIK([εLys-γGlu-γGlu-γGlu-γGlu-γGlu-γGlu-C20 diacid])GGPEEGASLRHYYNWLTRQRY-NH2 [Compound 89, Y-Aib-E-G-T-F-T-S-D-Y-S-I-Aib-L-E-K-Q-A-Q-Aib-A-F-V-Q-W-L-I-K(1,3)-GGPEEGASLRHYYNWLTRQRY-NH2.C20DA-gGlu-gGlu-gGlu-gGlu-gGlu-gGlu-eLys(1,2)]"
0.27,0.2,0.83,30.4,–,4.17,"H-Y[Aib]EGTFTSDYSI[Aib]LEKQAQ[Aib]EFVEWLIK([AEEA-AEEA-γGlu-γGlu-γGlu-C18 diacid])GGPSSGASLRHYYNWLTRQRY-NH2 [Compound 171, Y-Aib-E-G-T-F-T-S-D-Y-S-I-Aib-L-E-K-Q-A-Q-Aib-E-F-V-E-W-L-I-K(1,3)-GGPSSGASLRHYYNWLTRQRY-NH2.C18DA-gGlu-gGlu-gGlu-OEG-OEG(1,2)]"

# Second part, the substance before the results:
Substance,EC50 (hGLP1R; [1]) [nM],EC50 (hGIPR; [2]) [nM],EC50 (hGIPR; [3]) [nM],EC50 (hNPY2R; [4]) [nM],EC50 (hNPY2R; [5]) [nM],EC50 (hGLP1R; [6]) [nM]
"H-Y[Aib]EGTFTSDYSI[Aib]LEKQAQ[Aib]AFVQWLIK([εLys-γGlu-γGlu-γGlu-γGlu-γGlu-C18 diacid])GGPSEPASLRHYYNWLTRQRY-NH2 [Compound 148, Y-Aib-E-G-T-F-T-S-D-Y-S-I-Aib-L-E-K-Q-A-Q-Aib-A-F-V-Q-W-L-I-K(1,3)-GGPSEPASLRHYYNWLTRQRY-NH2.C18DA-gGlu-gGlu-gGlu-gGlu-gGlu-eLys(1,2)]",0.08,0.07,–,21,11,–
"H-Y[Aib]EGTFTSDYSI[Aib]LEKQAQ[Aib]AFVQWLIK([εLys-γGlu-γGlu-γGlu-γGlu-γGlu-C20 diacid])GGPSEPASLRHYYNWLTRQRY-NH2 [Compound 169, Y-Aib-E-G-T-F-T-S-D-Y-S-I-Aib-L-E-K-Q-A-Q-Aib-A-F-V-Q-W-L-I-K(1,3)-GGPSEPASLRHYYNWLTRQRY-NH2.C20DA-gGlu-gGlu-gGlu-gGlu-gGlu-eLys(1,2)]",0.13,0.26,–,50.3,10.3,–
"H-Y[Aib]EGTFTSDYSI[Aib]LEKQAQ[Aib]AFVQWLIK([εLys-γGlu-γGlu-γGlu-γGlu-γGlu-γGlu-C18 diacid])GGPEEGASLRHYYNWLTRQRY-NH2 [Compound 149, Y-Aib-E-G-T-F-T-S-D-Y-S-I-Aib-L-E-K-Q-A-Q-Aib-A-F-V-Q-W-L-I-K(1,3)-GGPEEGASLRHYYNWLTRQRY-NH2.C18DA-gGlu-gGlu-gGlu-gGlu-gGlu-gGlu-eLys(1,2)]",0.15,0.58,0.79,–,18.6,4.76
"H-Y[Aib]EGTFTSDYSI[Aib]LEKQAQ[Aib]AFVQWLIK([εLys-γGlu-γGlu-γGlu-γGlu-γGlu-γGlu-C18 diacid])GGPSSGASLRHYYNWLTRQRY-NH2 [Compound 170, Y-Aib-E-G-T-F-T-S-D-Y-S-I-Aib-L-E-K-Q-A-Q-Aib-A-F-V-Q-W-L-I-K(1,3)-GGPSSGASLRHYYNWLTRQRY-NH2.C18DA-gGlu-gGlu-gGlu-gGlu-gGlu-gGlu-eLys(1,2)]",0.09,0.24,1.15,–,19.2,–
"H-Y[Aib]EGTFTSDYSI[Aib]LEKQAQ[Aib]AFVQWLIK([εLys-γGlu-γGlu-γGlu-γGlu-γGlu-γGlu-C20 diacid])GGPSEGASLRHYYNWLTRQ[NMeR]Y-NH2 [Compound 125, Y-Aib-E-G-T-F-T-S-D-Y-S-I-Aib-L-E-K-Q-A-Q-Aib-A-F-V-Q-W-L-I-K(1,3)-G-G-P-S-E-G-A-S-L-R-H-Y-Y-N-W-L-T-R-Q-NMeR-Y-NH2.C20DA-gGlu-gGlu-gGlu-gGlu-gGlu-gGlu-eLys(1,2)]",0.23,0.28,1.72,99.3,30.9,–
"H-Y[Aib]EGTFTSDYSI[Aib]LEKQAQ[Aib]AFVQWLIK([εLys-γGlu-γGlu-γGlu-γGlu-γGlu-γGlu-C20 diacid])GGPSEGASLRHYYNWLTR[β3hQ]RY-NH2 [Compound 186, Y-Aib-E-G-T-F-T-S-D-Y-S-I-Aib-L-E-K-Q-A-Q-Aib-A-F-V-Q-W-L-I-K(1,3)-G-G-P-S-E-G-A-S-L-R-H-Y-Y-N-W-L-T-R-bHGln-R-Y-NH2.C20DA-gGlu-gGlu-gGlu-gGlu-gGlu-gGlu-eLys(1,2)]",0.11,0.11,0.77,–,> 99.9,–
"H-Y[Aib]EGTFTSDYSI[Aib]LEKQAQ[Aib]AFVQWLIK([εLys-γGlu-γGlu-γGlu-γGlu-γGlu-γGlu-C20 diacid])GGPSEGVSLRHYYNWLTRQRY-NH2 [Compound 114, Y-Aib-E-G-T-F-T-S-D-Y-S-I-Aib-L-E-K-Q-A-Q-Aib-A-F-V-Q-W-L-I-K(1,3)-GGPSEGVSLRHYYNWLTRQRY-NH2.C20DA-gGlu-gGlu-gGlu-gGlu-gGlu-gGlu-eLys(1,2)]",0.15,0.27,–,44.8,–,–
"H-Y[Aib]EGTFTSDYSI[Aib]LEKQAQ[Aib]AFVQWLIK([εLys-γGlu-γGlu-γGlu-γGlu-γGlu-γGlu-C20 diacid])GGPSSYVSLRHYYNWLTRQRY-NH2 [Compound 15, Y-Aib-E-G-T-F-T-S-D-Y-S-I-Aib-L-E-K-Q-A-Q-Aib-A-F-V-Q-W-L-I-K(1,3)-GGPSSYVSLRHYYNWLTRQRY-NH2.C20DA-gGlu-gGlu-gGlu-gGlu-gGlu-gGlu-eLys(1,2)]",0.16,0.32,2.43,15.4,–,–
"H-Y[Aib]EGTFTSDYSI[Aib]LEKQAQ[Aib]AFVQWLIK([εLys-γGlu-γGlu-γGlu-γGlu-γGlu-γGlu-C20 diacid])GGQRSYASLRHYYNWLTRQRY-NH2 [Compound 3, Y-Aib-E-G-T-F-T-S-D-Y-S-I-Aib-L-E-K-Q-A-Q-Aib-A-F-V-Q-W-L-I-K(1,3)-GGQRSYASLRHYYNWLTRQRY-NH2.C20DA-gGlu-gGlu-gGlu-gGlu-gGlu-gGlu-eLys(1,2)]",0.45,0.53,–,23,–,–
"H-Y[Aib]EGTFTSDYSI[Aib]LEKQAQ[Aib]EFVEWLIK([AEEA-AEEA-γGlu-C18 diacid])GGPSEGASLRHYYNWLTRQRY-NH2 [Compound 282, Y-Aib-E-G-T-F-T-S-D-Y-S-I-Aib-L-E-K-Q-A-Q-Aib-E-F-V-E-W-L-I-K(1,3)-GGPSEGASLRHYYNWLTRQRY-NH2.C18DA-gGlu-OEG-OEG(1,2)]",0.51,0.17,1.03,–,17.3,–
